Test results as given in the supplement of paper PMC10307832.

Compound: Cc1ccc(C(=O)Nc2ccc(CN3CCN(C)CC3)c(C(F)(F)F)c2)cc1C#Cc1cnc2cccnn12 [Ponatinib] + Nc1nc2[nH]cc(CCc3ccc(C(=O)N[C@@H](CCC(=O)O)C(=O)O)cc3)c2c(=O)[nH]1 [Pemetrexed] (partner 0.2 µM)
Assay: relative viability (nuclei count vs DMSO), 5 days (fraction); higher = more cells survive
Conditions: first compound 0.002 µM
Outline: (§1)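 Lung cancer cell lines in 1536-well plates got either a single drug or a fixed anchor-drug dose together with five library-drug doses (not always all listed) in √10 steps, by pin tool, on the day after seeding. Nuclei were counted after 5 days, and relative viability is the treated-to-vehicle ratio of nuclei counts. Values are medians of duplicate plates.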

Cell Line | relative viability
NCI-H2342 | 0.71
NCI-H838 | 0.234
NCI-H1650 | 0.345
NCI-H1993 | 0.691
NCI-H2347 | 0.41
PC-14 | 0.129
LCLC-103H | 0.446
NCI-H596 | 0.478
NCI-H2126 | 0.835
EMC-BAC-2 | 0.436
NCI-H2085 | 0.852
HCC-366 | 0.128
NCI-H1666 | 0.847
NCI-H647 | 0.203
LK-2 | 0.281
NCI-H2087 | 0.673
NCI-H1648 | 0.574
NCI-H1395 | 0.755

Cell Line | relative viability
H3255 | 0.527
COR-L23 | 0.19
COR-L 105 | 1.09
LOU-NH91 | 0.335
ChaGo-K-1 | 0.264
NCI-H358 | 0.168
NCI-H3122 | 0.208
HOP-62 | 0.268
HCC-44 | 0.636
NCI-H522 | 0.753
SW 900 | 0.458
NCI-H1793 | 0.792
NCI-H1792 | 0.698
NCI-H1944 | 0.631
NCI-H1563 | 0.748
NCI-H2170 | 0.238
SK-MES-1 | 0.89

Same assay, conditions: first compound 0.006325 µM

Cell Line | relative viability
NCI-H2342 | 0.733
NCI-H838 | 0.249
NCI-H1650 | 0.334
NCI-H1993 | 0.62
NCI-H2347 | 0.444
PC-14 | 0.137
LCLC-103H | 0.5
NCI-H596 | 0.467
NCI-H2126 | 0.757
EMC-BAC-2 | 0.404
NCI-H2085 | 0.894
HCC-366 | 0.154
NCI-H1666 | 0.829
NCI-H647 | 0.193
LK-2 | 0.305
NCI-H2087 | 0.648
NCI-H1648 | 0.667
NCI-H1395 | 0.819

Cell Line | relative viability
H3255 | 0.607
COR-L23 | 0.193
COR-L 105 | 1.07
LOU-NH91 | 0.421
ChaGo-K-1 | 0.258
NCI-H358 | 0.162
NCI-H3122 | 0.194
HOP-62 | 0.33
HCC-44 | 0.653
NCI-H522 | 1.15
SW 900 | 0.495
NCI-H1793 | 0.914
NCI-H1792 | 0.849
NCI-H1944 | 0.662
NCI-H1563 | 0.798
NCI-H2170 | 0.263
SK-MES-1 | 0.934

Same assay, conditions: first compound 0.06325 µM

Cell Line | relative viability
NCI-H2342 | 0.726
NCI-H838 | 0.255
NCI-H1650 | 0.44
NCI-H1993 | 0.573
NCI-H2347 | 0.474
PC-14 | 0.141
LCLC-103H | 0.483
NCI-H596 | 0.48
NCI-H2126 | 0.818
EMC-BAC-2 | 0.468
NCI-H2085 | 1.04
HCC-366 | 0.191
NCI-H1666 | 0.928
NCI-H647 | 0.17
LK-2 | 0.186
NCI-H2087 | 0.657
NCI-H1648 | 0.63
NCI-H1395 | 0.871

Cell Line | relative viability
H3255 | 0.614
COR-L23 | 0.189
COR-L 105 | 1.25
LOU-NH91 | 0.463
ChaGo-K-1 | 0.262
NCI-H358 | 0.189
NCI-H3122 | 0.214
HOP-62 | 0.276
HCC-44 | 0.688
NCI-H522 | 1.15
SW 900 | 0.457
NCI-H1793 | 0.774
NCI-H1792 | 1.14
NCI-H1944 | 0.676
NCI-H1563 | 0.745
NCI-H2170 | 0.281
SK-MES-1 | 1.16

Same assay, conditions: first compound 0.2 µM

Cell Line | relative viability
NCI-H2342 | 0.646
NCI-H838 | 0.227
NCI-H1650 | 0.36
NCI-H1993 | 0.678
NCI-H2347 | 0.485
PC-14 | 0.122
LCLC-103H | 0.416
NCI-H596 | 0.469
NCI-H2126 | 0.658
EMC-BAC-2 | 0.395
NCI-H2085 | 0.874
HCC-366 | 0.201
NCI-H1666 | 0.837
NCI-H647 | 0.203
LK-2 | 0.247
NCI-H2087 | 0.579
NCI-H1648 | 0.618
NCI-H1395 | 0.624

Cell Line | relative viability
H3255 | 0.546
COR-L23 | 0.19
COR-L 105 | 1.04
LOU-NH91 | 0.415
ChaGo-K-1 | 0.246
NCI-H358 | 0.174
NCI-H3122 | 0.194
HOP-62 | 0.304
HCC-44 | 0.622
NCI-H522 | 1.13
SW 900 | 0.464
NCI-H1793 | 0.671
NCI-H1792 | 0.746
NCI-H1944 | 0.719
NCI-H1563 | 0.641
NCI-H2170 | 0.331
SK-MES-1 | 0.948

Compound: Cc1ccc(Nc2nccc(N(C)c3ccc4c(C)n(C)nc4c3)n2)cc1S(N)(=O)=O [Pazopanib] + CC(C)C[C@H](NC(=O)[C@H](Cc1ccccc1)NC(=O)c1cnccn1)B(O)O [Bortezomib] (partner 0.002 µM)
Assay: as above
Conditions: first compound 0.01 µM
Outline: as §1

Cell Line | relative viability
NCI-H838 | 0.898
NCI-H1650 | 0.204
EBC-1 | 0.524
NCI-H1703 | 0.26
NCI-H1993 | 0.758
PC-14 | 0.976
LCLC-103H | 0.942
NCI-H596 | 0.872
NCI-H2126 | 1.05
EMC-BAC-2 | 0.889
NCI-H2085 | 1.04
Calu-6 | 0.928
HCC-366 | 0.954
NCI-H1666 | 0.707
NCI-H647 | 0.822
NCI-H2087 | 0.979
H3255 | 0.695
COR-L23 | 1.23
